According to patent US20240376097A1, “BCL-2 Inhibitor” (BeiGene Ltd., priority 2020, published 2024):
pIC50: −log10 of the molar value. Where two headings read alike, the source gives them in different places.

Key:
[1] = target: Recombinant human Bcl-2 protein (Homo sapiens (Human), UniProt P10415); experiment: Bcl-2 TR-FRET Assay; assay type: binding
In short: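 In pH 7.5 phosphate buffer containing NaCl, EDTA, Tween-20 and BSA, 0.05 nM Bcl-2 saw serially diluted compound for 0.5 h before 0.5 nM FITC-Bak peptide was added. Signal ratio at 520/490 nm after 1 h yielded IC50.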

[2] = target: recombinant human Bcl-2-G101V protein (Homo sapiens (Human), UniProt P10415, G101V); experiment: Bcl-2-G101V TR-FRET Assay; assay type: binding; conditions: Bcl-2 G101V mutant, TR-FRET; read-out: Biochemical assay (IC50, nM) Bcl-2 G101V
In short: (§1)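 Percent inhibition of the Bcl-2-G101V–ligand interaction was computed from the 490 nm to 520 nm emission ratio after 337 nm excitation, over increasing compound concentrations; a four-parameter logistic fit gave IC50.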

[3] = tested on: recombinant human Bcl-2-G101V protein; experiment: Bcl-2-G101V TR-FRET Assay; assay type: binding; conditions: ratio of biochemical IC50 Bcl-2 G101V / Bcl-2 WT
In short: as §1

[4] = tested on: RS4;11 (BCL-2 dependent acute lymphoblastic leukemia cell line); experiment: RS4;11 Cell Proliferation Assay; assay type: cell-based; conditions: Homo sapiens, RS4-11, RS4;11 cells, read-out: Cellular proliferation assay (IC50, nM) RS4
In short: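 Viability measured via CellTiter-Glo luminescence after a 48 h, 37 °C exposure to compounds (10 points, highest 1 μM). Seeding was 50,000 RS4;11 cells per well in 10% FBS RPMI-1640; IC50 given as mean.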

[5] = tested on: BCL-2 G101V knock-in cell line H96 (derive from RS4;11); experiment: Bcl 2-G101V Knock-In RS4;11 Cell Proliferation Assay; assay type: cell-based; conditions: Homo sapiens, RS4;11 Bcl-2 G101V knock-in clone H96, 48 hrs, CellTiter-GLO, read-out: Cellular proliferation assay (IC50, nM) RS4
In short: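 CellTiter-Glo luminescence after 48 h, 37 °C compound treatment (10 concentrations, maximum 1 μM or 10 μM) gave mean IC50 values. Cells were 50,000 per well of H96, a BCL2-G101V knock-in single clone derived from RS4;11 by Cas9 editing.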

[6] = target: recombinant human Bcl-2 D103Y protein (Homo sapiens (Human), UniProt P10415, D103Y); experiment: Bcl-2-D103Y Biochemical Assay (TR-FRET); assay type: binding; conditions: for pIC50: TR-FRET, FITC labeled Bak peptide; for Ratio of Bcl-2 D103Y/Bcl-2 WT: ratio of IC50
In short: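 Compounds titrated against the Bcl-2 D103Y–ligand interaction; inhibition derived from the TR-FRET emission ratio 490 nm/520 nm after 337 nm excitation. Four-parameter logistic fitting gave IC50.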

[7] = Bcl-2 wild type, TR-FRET, read-out: Biochemical assay (IC50, nM) Bcl-2 WT
[8] = wild type Bcl-2, unit inferred, read-out: Bcl-2 WT

SMILES | IC50 [1, 7] | IC50 [1, 8] | IC50 [2] | Ratio of Bcl-2 G101V/WT [3] | IC50 [4] | IC50 [5] | pIC50 [6] | Ratio of Bcl-2 D103Y/Bcl-2 WT [6]
COc1cc(CN2CCN(C3CC4(C3)CN(c3ccc(C(=O)NS(=O)(=O)c5ccc(NC[C@H]6CC[C@](C)(O)CC6)c([N+](=O)[O-])c5)c(Oc5cnc6[nH]cc(F)c6c5)c3)C4)[C@H](c3ccccc3C(C)C)C2)ccc1OC(C)C [Example 349, 2-((3-fluoro-1H-pyrrolo[2,3-b]pyridin-5-yl)oxy)-N-((4-((((1r,4r)-4-hydroxy-4-methylcyclohexyl)methyl)amino)-3-nitrophenyl)sulfonyl)-4-(6-((R)-4-(4-isopropoxy-3-methoxybenzyl)-2-(2-isopropylphenyl)piperazin-1-yl)-2-azaspiro[3.3]heptan-2-yl) benzamide] | 0.2 nM | 0.2 nM | 0.43 nM | 2.2 | 0.16 nM | 0.44 nM | 9.77 | 0.9
COc1cc(CN2CCN(C3CC4(C3)CN(c3ccc(C(=O)NS(=O)(=O)c5ccc(NC[C@H]6CC[C@](C)(O)CC6)c([N+](=O)[O-])c5)c(Oc5cnc6[nH]cc(F)c6c5)c3)C4)[C@H](c3ccccc3C(C)C)C2)ccc1OC1CCC1 [Example 350, 4-(6-((R)-4-(4-cyclobutoxy-3-methoxybenzyl)-2-(2-isopropylphenyl)piperazin-1-yl)-2-azaspiro[3.3]heptan-2-yl)-2-((3-fluoro-1H-pyrrolo[2,3-b]pyridin-5-yl)oxy)-N-((4-((((1r,4r)-4-hydroxy-4-methylcyclohexyl)methyl)amino)-3-nitrophenyl)sulfonyl) benzamide] | 0.48 nM | 0.48 nM | 0.99 nM | 2.2 | 0.23 nM | 0.79 nM | 9.19 | 1.4
COc1cc(CN2CCN(C3CC4(C3)CN(c3ccc(C(=O)NS(=O)(=O)c5ccc(NC[C@H]6CC[C@](C)(O)CC6)c([N+](=O)[O-])c5)c(Oc5cnc6[nH]cc(F)c6c5)c3)C4)[C@H](c3ccccc3C(C)C)C2)ccc1OC1COC1 [Example 351] | 0.042 nM | 0.04 nM | 0.11 nM | 2.6 | 0.09 nM | 0.13 nM | 10.15 | 1.7
COc1ccc(C(=O)N2CCN(C3CC4(C3)CN(c3ccc(C(=O)NS(=O)(=O)c5ccc(NC[C@H]6CC[C@](C)(O)CC6)c([N+](=O)[O-])c5)c(Oc5cnc6[nH]cc(F)c6c5)c3)C4)[C@H](c3ccccc3C(C)C)C2)cc1 [Example 353] | 0.077 nM | 0.07 nM | 0.25 nM | 3.3 | 0.2 nM | 0.64 nM | 9.92 | 1.5
COC1C2CC3CCC(CN4CCN(C5CC6(C5)CN(c5ccc(C(=O)NS(=O)(=O)c7ccc(NC[C@H]8CC[C@](C)(O)CC8)c([N+](=O)[O-])c7)c(Oc7cnc8[nH]cc(F)c8c7)c5)C6)[C@H](c5ccccc5C(C)C)C4)(C2)CC31 (stereo partly drawn) [Example 355, 2-((3-fluoro-1H-pyrrolo[2,3-b]pyridin-5-yl)oxy)-N-((4-((((1r,4r)-4-hydroxy-4-methylcyclohexyl)methyl)amino)-3-nitrophenyl)sulfonyl)-4-(6-((2R)-2-(2-isopropylphenyl)-4-((3-methoxyoctahydro-5H-2,5-methanoinden-5-yl)methyl)piperazin-1-yl)-2-azaspiro[3.3]heptan-2-yl)benzamide] | 0.31 nM | 0.31 nM | 1.1 nM | 3.6 | 0.2 nM | 2.8 nM | 8.74 | 5.8
COc1ccc(CN2CCN(C3CC4(C3)CN(c3ccc(C(=O)NS(=O)(=O)c5ccc(NCC67CC8CC(C6)CC(OC)(C8)C7)c([N+](=O)[O-])c5)c(Oc5cnc6[nH]cc(F)c6c5)c3)C4)[C@H](c3ccccc3C(C)C)C2)cc1 [Example 357, 2-((3-fluoro-1H-pyrrolo[2,3-b]pyridin-5-yl)oxy)-4-(6-((R)-2-(2-isopropylphenyl)-4-(4-methoxybenzyl)piperazin-1-yl)-2-azaspiro[3.3]heptan-2-yl)-N-((4-((((1r,5R,7S)-3-methoxyadamantan-1-yl)methyl)amino)-3-nitrophenyl)sulfonyl) benzamide] | 0.57 nM | 0.57 nM | 1.4 nM | 2.5 | 0.19 nM | 1 nM | 9.00 | 1.8
COc1cc(CN2CCN(C3CC4(C3)CN(c3ccc(C(=O)NS(=O)(=O)c5ccc(NC[C@H]6CC[C@](C)(O)CC6)c([N+](=O)[O-])c5)c(Oc5cnc6[nH]cc(F)c6c5)c3)C4)[C@H](c3ccccc3C(C)C)C2)ccc1N1CC(OC)C1 [Example 359, 2-((3-fluoro-1H-pyrrolo[2,3-b]pyridin-5-yl)oxy)-N-((4-((((1r,4r)-4-hydroxy-4-methylcyclohexyl)methyl)amino)-3-nitrophenyl)sulfonyl)-4-(6-((R)-2-(2-isopropylphenyl)-4-(3-methoxy-4-(3-methoxyazetidin-1-yl)benzyl)piperazin-1-yl)-2-azaspiro[3.3]heptan-2-yl)benzamide] | 0.19 nM | 0.19 nM | 0.64 nM | 3.4 | 0.16 nM | 0.63 nM | 9.36 | 2.4
COc1cc(CN2CCN(C3CC4(C3)CN(c3ccc(C(=O)NS(=O)(=O)c5ccc(NC[C@H]6CC[C@](C)(O)CC6)c([N+](=O)[O-])c5)c(Oc5cnc6[nH]cc(F)c6c5)c3)C4)[C@H](c3ccccc3C(C)C)C2)ccc1NC(C)C [Example 360] | 0.23 nM | 0.23 nM | 0.5 nM | 2.2 | 0.05 nM | 0.11 nM | 9.51 | 1.4
CC(C)c1ccccc1[C@@H]1CN(Cc2ccc(C3COC3)cc2)CCN1C1CC2(C1)CN(c1ccc(C(=O)NS(=O)(=O)c3ccc(NC[C@H]4CC[C@](C)(O)CC4)c([N+](=O)[O-])c3)c(Oc3cnc4[nH]cc(F)c4c3)c1)C2 [Example 362, 2-((3-fluoro-1H-pyrrolo[2,3-b]pyridin-5-yl)oxy)-N-((4-((((1r,4r)-4-hydroxy-4-methylcyclohexyl)methyl)amino)-3-nitrophenyl)sulfonyl)-4-(6-((R)-2-(2-isopropylphenyl)-4-(4-(oxetan-3-yl)benzyl)piperazin-1-yl)-2-azaspiro[3.3]heptan-2-yl) benzamide] | 0.07 nM | 0.069 nM | 0.14 nM | 2 | 0.08 nM | 0.17 nM | 10.02 | 1.4
COc1ccc(CN2CCN(C3CC4(C3)CN(c3ccc(C(=O)NS(=O)(=O)c5ccc(NC[C@H]6CC[C@](C)(O)CC6)c([N+](=O)[O-])c5)c(Oc5cnc6[nH]cc(F)c6c5)c3)C4)[C@H](c3ccccc3C(C)C)C2)cc1OC1CC1 [Example 364, 4-(6-((R)-4-(3-cyclopropoxy-4-methoxybenzyl)-2-(2-isopropylphenyl)piperazin-1-yl)-2-azaspiro[3.3]heptan-2-yl)-2-((3-fluoro-1H-pyrrolo[2,3-b]pyridin-5-yl)oxy)-N-((4-((((1r,4r)-4-hydroxy-4-methylcyclohexyl)methyl)amino)-3-nitrophenyl)sulfonyl) benzamide] | 0.14 nM |  | 0.39 nM | 2.9 | 0.13 nM | 0.2 nM | 9.85 | 1.0
